The values below come from ChEMBL document CHEMBL1150945, “New p-terphenyl and polyketide metabolites from the sclerotia of Penicillium raistrickii” (1998).

SMILES strings stand for the structures. Activity calls are given as the source filed them. The calls are words filed in the database; no cut-off is given here.

The subject of assay [1] is Helicoverpa zea. As to the kind of experiment: Insecticidal activity against corn ear worm larvae at 400 to 500 ppm relative to control. In kind it is functional.
In a further assay the test system is Carpophilus. In words: Antiinsectan activity against Carpophilus hemipterus assessed as reduction in feeding rate at 400 to 500 ppm relative to control. In kind it is functional. More on the design: scale not given: the % may be the effect or the level left.
In a further assay the test system is Bacillus subtilis. In words: Antibacterial activity against Bacillus subtilis ATCC 6051 at 200 ug/disk by standard disk assay. Conditions: read-out: IZ. In kind it is functional.
The test system of another assay is Candida albicans. In words: Antifungal activity against Candida albicans ATCC 14053 at 200 ug/disk by standard disk assay. In kind it is functional, organism-based.
The subject of another assay is Staphylococcus aureus. As to the kind of experiment: Antibacterial activity against Staphylococcus aureus ATCC 29213 at 200 ug/disk by standard disk assay. In kind it is functional. Conditions: read-out: IZ.
Assay [2] deals with Helicoverpa zea. In words: Insecticidal activity against corn ear worm larvae at 500 ppm relative to control. In kind it is functional.

As to `COC1=CC(=O)C[C@@H](C)[C@]12Oc1c(Cl)c(OC)cc(OC)c1C2=O` [GRISEOFULVIN], the Activity with Helicoverpa zea [1] was determined as 70%; in the assay with Carpophilus it was 30%.
Regarding `Cc1cc(O)c(O)c2oc3cc(O)cc(O)c3c(=O)c12`, the zone of inhibition at 200 µg/disc was 12 mm in the assay with Bacillus subtilis and 11 mm in the assay on Staphylococcus aureus. The result in the assay on Candida albicans was inactive.
Turning to `COc1c(-c2ccc(O)c(O)c2)cc(O)c2c1oc1cc(O)c(O)cc12`, in the assay on Candida albicans, the outcome was inactive.
With `COc1c(-c2ccc(O)c(O)c2)cc(O)c(-c2ccc(O)c(O)c2)c1O`, the Activity in the assay with Helicoverpa zea [2] is 28%. The result in the assay on Candida albicans was inactive. The zone of inhibition at 200 µg/disc in the assay with Staphylococcus aureus worked out at 13 mm.
